Measurements as given in the supplement of paper PMC10307832.

Assays:
Test in all cases: relative viability (nuclei count vs DMSO), 5 days (fraction); higher = more cells survive
Linifanib + Olaparib = compound: Cc1ccc(F)c(NC(=O)Nc2ccc(-c3cccc4[nH]nc(N)c34)cc2)c1 [Linifanib] + O=C(c1cc(Cc2n[nH]c(=O)c3ccccc23)ccc1F)N1CCN(C(=O)C2CC2)CC1 [Olaparib] (partner 8 µM)
In short: (§1)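 Nuclei were stained with Hoechst during a one-step fixation (final 0.05% Triton X-100, 1% formaldehyde, 1 ug/ml Hoechst) carried out 5 days after dosing, then counted on 4× images. The cells, lung cancer lines in 1536-well plates, had been dosed by pin tool the day after seeding with one drug alone or a fixed anchor-drug dose plus five library-drug doses (not always all listed) in √10 steps. Relative viability is the nuclei count in treated wells divided by that in vehicle wells, and each value is the median of duplicate plates.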

Linifanib + Pictilisib = compound: Cc1ccc(F)c(NC(=O)Nc2ccc(-c3cccc4[nH]nc(N)c34)cc2)c1 [Linifanib] + CS(=O)(=O)N1CCN(Cc2cc3nc(-c4cccc5[nH]ncc45)nc(N4CCOCC4)c3s2)CC1 [Pictilisib] (partner 1 µM)
In short: as §1

Linifanib + Lapatinib = compound: Cc1ccc(F)c(NC(=O)Nc2ccc(-c3cccc4[nH]nc(N)c34)cc2)c1 [Linifanib] + CS(=O)(=O)CCNCc1ccc(-c2ccc3ncnc(Nc4ccc(OCc5cccc(F)c5)c(Cl)c4)c3c2)o1 [Lapatinib] (partner 2 µM)
In short: as §1

Linifanib + Bortezomib = compound: Cc1ccc(F)c(NC(=O)Nc2ccc(-c3cccc4[nH]nc(N)c34)cc2)c1 [Linifanib] + CC(C)C[C@H](NC(=O)[C@H](Cc1ccccc1)NC(=O)c1cnccn1)B(O)O [Bortezomib] (partner 0.002 µM)
In short: as §1

Linifanib + Foretinib = compound: Cc1ccc(F)c(NC(=O)Nc2ccc(-c3cccc4[nH]nc(N)c34)cc2)c1 [Linifanib] + COc1cc2c(Oc3ccc(NC(=O)C4(C(=O)Nc5ccc(F)cc5)CC4)cc3F)ccnc2cc1OCCCN1CCOCC1 [Foretinib] (partner 0.25 µM)
In short: as §1

Linifanib + Linsitinib = compound: Cc1ccc(F)c(NC(=O)Nc2ccc(-c3cccc4[nH]nc(N)c34)cc2)c1 [Linifanib] + C[C@]1(O)C[C@@H](c2nc(-c3ccc4ccc(-c5ccccc5)nc4c3)c3c(N)nccn32)C1 [Linsitinib] (partner 1 µM)
In short: as §1

Linifanib + Crizotinib = compound: Cc1ccc(F)c(NC(=O)Nc2ccc(-c3cccc4[nH]nc(N)c34)cc2)c1 [Linifanib] + C[C@@H](Oc1cc(-c2cnn(C3CCNCC3)c2)cnc1N)c1c(Cl)ccc(F)c1Cl [Crizotinib] (partner 1 µM)
In short: as §1

Linifanib + Navitoclax = compound: Cc1ccc(F)c(NC(=O)Nc2ccc(-c3cccc4[nH]nc(N)c34)cc2)c1 [Linifanib] + CC1(C)CCC(c2ccc(Cl)cc2)=C(CN2CCN(c3ccc(C(=O)NS(=O)(=O)c4ccc(N[C@H](CCN5CCOCC5)CSc5ccccc5)c(S(=O)(=O)C(F)(F)F)c4)cc3)CC2)C1 [Navitoclax] (partner 0.5 µM)
In short: as §1

Linifanib + Alpelisib = compound: Cc1ccc(F)c(NC(=O)Nc2ccc(-c3cccc4[nH]nc(N)c34)cc2)c1 [Linifanib] + Cc1nc(NC(=O)N2CCC[C@H]2C(N)=O)sc1-c1ccnc(C(C)(C)C(F)(F)F)c1 [Alpelisib] (partner 2 µM)
In short: as §1

Linifanib = compound: Cc1ccc(F)c(NC(=O)Nc2ccc(-c3cccc4[nH]nc(N)c34)cc2)c1 [Linifanib]
In short: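 Lung cancer cell lines in 1536-well plates were exposed by pinning to five library-drug doses (not always all listed) √10 apart, following an overnight hold at 37 °C. MetaXpress counted Hoechst-stained nuclei from 4× images taken after 5 days without medium change. Viability is the median ratio of treated-well to vehicle-well nuclei across plates. Plates required control CV below 25% and at least one doubling.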

Linifanib + Dasatinib = compound: Cc1ccc(F)c(NC(=O)Nc2ccc(-c3cccc4[nH]nc(N)c34)cc2)c1 [Linifanib] + Cc1nc(Nc2ncc(C(=O)Nc3c(C)cccc3Cl)s2)cc(N2CCN(CCO)CC2)n1 [Dasatinib] (partner 0.075 µM)
In short: as §1

Linifanib + Phenformin = compound: Cc1ccc(F)c(NC(=O)Nc2ccc(-c3cccc4[nH]nc(N)c34)cc2)c1 [Linifanib] + N=C(N)NC(=N)NCCc1ccccc1 [Phenformin] (partner 250 µM)
In short: as §1

Linifanib + Pemetrexed = compound: Cc1ccc(F)c(NC(=O)Nc2ccc(-c3cccc4[nH]nc(N)c34)cc2)c1 [Linifanib] + Nc1nc2[nH]cc(CCc3ccc(C(=O)N[C@@H](CCC(=O)O)C(=O)O)cc3)c2c(=O)[nH]1 [Pemetrexed] (partner 0.2 µM)
In short: as §1

Linifanib + OSI-027 = compound: Cc1ccc(F)c(NC(=O)Nc2ccc(-c3cccc4[nH]nc(N)c34)cc2)c1 [Linifanib] + COc1cccc2cc(-c3nc([C@H]4CC[C@H](C(=O)O)CC4)n4ncnc(N)c34)[nH]c12 [OSI-027] (partner 0.5 µM)
In short: as §1

Linifanib + Luminespib = compound: Cc1ccc(F)c(NC(=O)Nc2ccc(-c3cccc4[nH]nc(N)c34)cc2)c1 [Linifanib] + CCNC(=O)c1noc(-c2cc(C(C)C)c(O)cc2O)c1-c1ccc(CN2CCOCC2)cc1 [Luminespib] (partner 0.01 µM)
In short: as §1

Cell Line | relative viability (Linifanib + Pictilisib; first compound 0.03162 µM) | relative viability (Linifanib + Pictilisib; first compound 0.1 µM) | relative viability (Linifanib + Pictilisib; first compound 0.3162 µM) | relative viability (Linifanib + Lapatinib; first compound 0.03162 µM) | relative viability (Linifanib + Lapatinib; first compound 0.1 µM) | relative viability (Linifanib + Lapatinib; first compound 0.3162 µM) | relative viability (Linifanib + Bortezomib; first compound 0.03162 µM) | relative viability (Linifanib + Bortezomib; first compound 0.1 µM) | relative viability (Linifanib + Bortezomib; first compound 0.3162 µM) | relative viability (Linifanib + Foretinib; first compound 0.03162 µM) | relative viability (Linifanib + Foretinib; first compound 0.1 µM) | relative viability (Linifanib + Foretinib; first compound 0.3162 µM) | relative viability (Linifanib + Linsitinib; first compound 0.03162 µM) | relative viability (Linifanib + Linsitinib; first compound 0.1 µM) | relative viability (Linifanib + Linsitinib; first compound 0.3162 µM) | relative viability (Linifanib + Crizotinib; first compound 0.03162 µM) | relative viability (Linifanib + Crizotinib; first compound 0.1 µM) | relative viability (Linifanib + Crizotinib; first compound 0.3162 µM) | relative viability (Linifanib + Alpelisib; first compound 0.03162 µM) | relative viability (Linifanib + Alpelisib; first compound 0.1 µM) | other results
NCI-H1299 | 0.575 | 0.885 | 0.829 | 0.951 | 0.95 | 0.994 | 1.03 | 1.01 | 1.02 | 1.1 | 1.11 | 1.04 | 0.975 | 0.996 | 0.998 | 0.899 | 0.956 | 0.97 | 1.11 | 1.02 | relative viability (Linifanib + Olaparib; first compound 0.03162 µM): 0.978; relative viability (Linifanib + Olaparib; first compound 0.1 µM): 0.958; relative viability (Linifanib + Olaparib; first compound 0.3162 µM): 0.959; relative viability (Linifanib + Navitoclax; first compound 0.03162 µM): 1.06; relative viability (Linifanib + Navitoclax; first compound 0.1 µM): 1.08; relative viability (Linifanib + Navitoclax; first compound 0.3162 µM): 1; relative viability (Linifanib + Alpelisib; first compound 0.3162 µM): 1.06; relative viability (Linifanib; 0.03162 µM): 1.02; relative viability (Linifanib; 0.1 µM): 1.02; relative viability (Linifanib; 0.3162 µM): 1.03
NCI-H1563 | 0.669 | 0.665 | 0.629 | 0.963 | 1.05 | 0.913 | 0.952 | 0.87 | 0.812 | 0.954 | 0.968 | 0.887 | 1.14 | 1.33 | 1.08 | 0.862 | 0.852 | 0.879 | 0.901 | 0.956 | relative viability (Linifanib + Dasatinib; first compound 0.03162 µM): 0.452; relative viability (Linifanib + Dasatinib; first compound 0.1 µM): 0.484; relative viability (Linifanib + Dasatinib; first compound 0.3162 µM): 0.496; relative viability (Linifanib + Phenformin; first compound 0.03162 µM): 0.669; relative viability (Linifanib + Phenformin; first compound 0.1 µM): 0.691; relative viability (Linifanib + Phenformin; first compound 0.3162 µM): 0.605; relative viability (Linifanib + Pemetrexed; first compound 0.03162 µM): 0.803; relative viability (Linifanib + Pemetrexed; first compound 0.1 µM): 0.911; relative viability (Linifanib + Pemetrexed; first compound 0.3162 µM): 0.692; relative viability (Linifanib + OSI-027; first compound 0.03162 µM): 0.718; relative viability (Linifanib + OSI-027; first compound 0.1 µM): 0.814; relative viability (Linifanib + OSI-027; first compound 0.3162 µM): 0.716; relative viability (Linifanib + Alpelisib; first compound 0.3162 µM): 0.956; relative viability (Linifanib + Luminespib; first compound 0.03162 µM): 0.558; relative viability (Linifanib + Luminespib; first compound 0.1 µM): 0.504; relative viability (Linifanib + Luminespib; first compound 0.3162 µM): 0.512; relative viability (Linifanib; 0.03162 µM): 0.904; relative viability (Linifanib; 0.1 µM): 1.04; relative viability (Linifanib; 0.3162 µM): 1.02
